Laboratory results taken from patent publication US11840686B2, “Modulation of prekallikrein (PKK) expression” (Ionis Pharmaceuticals, Inc., priority 2013, dated 2023).
Strand notation (5' to 3'): a small letter for the sugar, then the base; units joined by * are phosphorothioate-linked, units joined directly phosphodiester-linked; [ ] holds rarer units or linkages, { } end groups; capitals alone tell only the bases. e = 2'-O-(2-methoxyethyl) (MOE); k = constrained ethyl (cEt); [5mC] = 5-methylcytosine; d = 2'-deoxy (DNA)

System: human PKK mRNA
Test: Antisense inhibition of human PKK mRNA in HepaRG cells, 1,000 nM, MOE/deoxy/cEt oligonucleotides (Example 3)
Format: cell-based
In short: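 Readout is percent PKK mRNA reduction against untreated controls, by real-time PCR (RTS3454) adjusted for total RNA via RIBOGREEN. Oligonucleotides, phosphorothioate gapmers of 16 nucleosides with cEt, MOE and deoxy sugars, were delivered at 1,000 nM by electroporation to 20,000 HepaRG cells/well for roughly 24 h.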

[1] = Table 20, HepaRG cells, electroporation with 1,000 nM antisense oligonucleotide, approximately 24 hours, PKK mRNA by RT-PCR (RTS3454), relative to untreated control cells
[2] = Table 22 experiment, HepaRG cells, electroporation with 1,000 nM antisense oligonucleotide, approx. 24 hours, PKK mRNA by RT-PCR (RTS3454), relative to untreated control cells
[3] = Table 28, HepaRG cells, 1,000 nM antisense oligonucleotide, human PKK mRNA
[4] = HepaRG cells, electroporation with 1,000 nM antisense oligonucleotide, approximately 24 hours, primer probe set RTS3454, relative to untreated control cells, experiment of Table 23
[5] = HepaRG cells, electroporation with 1,000 nM antisense oligonucleotide, approx. 24 hours, PKK mRNA by RT-PCR (RTS3454), relative to untreated control cells, Table 25 experiment
[6] = Table 27, HepaRG cells, 1,000 nM antisense oligonucleotide, human PKK mRNA
[7] = HepaRG cells, 1,000 nM antisense oligonucleotide, Table 29
[8] = Table 21 experiment, HepaRG cells, electroporation with 1,000 nM antisense oligonucleotide, approx. 24 hours, PKK mRNA by RT-PCR (RTS3454), relative to untreated control cells
[9] = Table 19, HepaRG cells, electroporation with 1,000 nM antisense oligonucleotide, approximately 24 hours, PKK mRNA by RT-PCR (RTS3454), relative to untreated control cells
[10] = PKK mRNA, HepaRG cells, 1,000 nM antisense oligonucleotide, Table 31
[11] = Table 30, human PKK mRNA, HepaRG cells, 1,000 nM antisense oligonucleotide
[12] = HepaRG cells, electroporation with 1,000 nM antisense oligonucleotide, approximately 24 hours, primer probe set RTS3454, relative to untreated control cells, experiment of Table 24

547907 (eA*eT*kT*dT*d[5mC]*dT*dG*dA*dA*dA*dG*dG*dG*k[5mC]*kA*e[5mC]; antisense) [compound 547907]
% inhibition [1]: 27% | % inhibition [2]: 27%

548469 (eT*eT*k[5mC]*d[5mC]*d[5mC]*dT*dA*d[5mC]*d[5mC]*d[5mC]*d[5mC]*dT*dG*kG*kT*eA; antisense) [compound 548469]
% inhibition [3]: 0%

547901 (e[5mC]*eT*kG*dT*dA*d[5mC]*dT*dT*dT*dA*dA*dT*dA*kG*kG*e[5mC]; antisense) [compound 547901]
% inhibition [1]: 77% | % inhibition [2]: 85%

547959 (eG*e[5mC]*kA*dG*dG*dT*dT*dA*dA*dA*dA*dG*dG*k[5mC]*kT*eA; antisense) [compound 547959]
% inhibition [4]: 60%

548189 (e[5mC]*eA*kT*dG*dA*dA*d[5mC]*dA*dT*d[5mC]*d[5mC]*dT*dA*kT*k[5mC]*e[5mC]; antisense) [compound 548189]
% inhibition [5]: 24%

548369 (eG*eT*kT*dG*dG*dG*dA*dT*dG*d[5mC]*dG*dA*d[5mC]*kT*k[5mC]*eT; antisense) [compound 548369]
% inhibition [6]: 50%

548344 (antisense eG*eG*k[5mC]*dA*dA*d[5mC]*dT*dA*dT*dG*dT*dT*d[5mC]*kT*k[5mC]*eA) [compound 548344]
% inhibition [6]: 76%

548542 (antisense eG*e[5mC]*kG*d[5mC]*d[5mC]*dA*dT*d[5mC]*d[5mC]*dT*dT*d[5mC]*dA*kA*kT*e[5mC]) [compound 548542]
% inhibition [7]: 7%

547825 (eT*e[5mC]*kG*dA*dT*dG*dT*dA*d[5mC]*dT*dT*dT*dT*kG*kG*e[5mC]; antisense) [compound 547825]
% inhibition [8]: 59%

548462 (eA*e[5mC]*k[5mC]*dT*dA*dT*dA*dT*d[5mC]*dA*d[5mC]*dT*dG*kT*kA*eA; antisense) [compound 548462]
% inhibition [3]: 0%

548122 (antisense e[5mC]*eT*k[5mC]*dT*dG*dG*dA*d[5mC]*dT*dG*d[5mC]*dT*dT*k[5mC]*kT*e[5mC]) [compound 548122]
% inhibition [9]: 55%

548199 (eG*e[5mC]*kA*d[5mC]*dT*dG*d[5mC]*dA*dG*dG*d[5mC]*dA*dA*kT*kA*eT; antisense) [compound 548199]
% inhibition [5]: 24%

548177 (eA*eG*kA*dT*d[5mC]*dT*d[5mC]*dA*dG*dT*dT*dG*d[5mC]*kG*kA*e[5mC]; antisense) [compound 548177]
% inhibition [5]: 45%

548647 (antisense e[5mC]*eA*k[5mC]*dG*dG*d[5mC]*dA*dA*dG*dT*d[5mC]*dG*d[5mC]*kG*kG*eG) [compound 548647]
% inhibition [10]: 39%

547853 (antisense eT*eA*kT*dA*dA*dA*dT*dG*dT*d[5mC]*dT*d[5mC]*dG*kA*kT*eG) [compound 547853]
% inhibition [1]: 0% | % inhibition [2]: 30%

547961 (eT*eT*kG*d[5mC]*dA*dG*dG*dT*dT*dA*dA*dA*dA*kG*kG*e[5mC]; antisense) [compound 547961]
% inhibition [4]: 5%

548394 (eG*eG*k[5mC]*dA*dG*dG*dA*dG*dA*d[5mC]*dT*d[5mC]*d[5mC]*kG*kT*eG; antisense) [compound 548394]
% inhibition [11]: 25%

548329 (antisense eA*eG*k[5mC]*dA*dG*dA*dT*d[5mC]*dT*dG*dG*dG*dT*kT*kG*eT) [compound 548329]
% inhibition [6]: 59%

547977 (antisense e[5mC]*e[5mC]*kT*d[5mC]*d[5mC]*dA*dA*dA*dG*dT*d[5mC]*dA*dA*k[5mC]*kT*e[5mC]) [compound 547977]
% inhibition [4]: 57%

548261 (antisense eT*eT*k[5mC]*dA*dG*dG*dG*dA*dG*dT*dG*dA*dT*kG*kT*e[5mC]) [compound 548261]
% inhibition (HepaRG cells, electroporation with 1,000 nM antisense oligonucleotide, approx. 24 hours, PKK mRNA by RT-PCR (RTS3454), relative to untreated control cells, Table 26 experiment): 36%

548630 (antisense eT*eG*kG*dT*d[5mC]*d[5mC]*d[5mC]*dA*dA*dA*dT*dT*dG*kG*kA*eG) [compound 548630]
% inhibition [10]: 33%

548216 (eG*eT*kG*d[5mC]*dA*dT*dA*dG*dA*d[5mC]*d[5mC]*d[5mC]*d[5mC]*kA*kA*e[5mC]; antisense) [compound 548216]
% inhibition [5]: 45%

548009 (eG*eT*kT*dA*d[5mC]*dA*d[5mC]*dA*dA*dT*d[5mC]*dT*d[5mC]*kA*kA*eA; antisense) [compound 548009]
% inhibition [12]: 47%

547889 (eT*eT*k[5mC]*d[5mC]*dG*dG*dT*dA*d[5mC]*dT*d[5mC]*dT*dG*k[5mC]*k[5mC]*eT; antisense) [compound 547889]
% inhibition [1]: 91% | % inhibition [2]: 97%

548116 (antisense eT*e[5mC]*kA*dT*dG*d[5mC]*dT*dG*dG*dT*dG*dA*d[5mC]*kT*kG*e[5mC]) [compound 548116]
% inhibition [9]: 3%

548330 (antisense eG*eA*k[5mC]*dT*dA*dG*d[5mC]*dT*dT*d[5mC]*dT*dA*d[5mC]*kT*kA*e[5mC]) [compound 548330]
% inhibition [6]: 34%

548494 (antisense eT*eG*kT*dG*dA*d[5mC]*d[5mC]*d[5mC]*d[5mC]*d[5mC]*d[5mC]*dA*d[5mC]*k[5mC]*kG*e[5mC]) [compound 548494]
% inhibition [3]: 39%

547930 (eT*eG*kA*dT*dA*dG*dG*dT*dG*d[5mC]*dA*dG*dA*kT*kG*eG; antisense) [compound 547930]
% inhibition [4]: 48%

547920 (eG*eA*kG*dA*dA*d[5mC]*d[5mC]*d[5mC]*dT*dG*dG*d[5mC]*dA*kA*k[5mC]*eA; antisense) [compound 547920]
% inhibition [4]: 52%

548153 (eT*eG*k[5mC]*dT*dG*dA*dA*dA*dG*d[5mC]*dG*dG*dG*k[5mC]*kT*eT; antisense) [compound 548153]
% inhibition [5]: 44%

548537 (antisense e[5mC]*e[5mC]*kT*d[5mC]*dA*dA*dT*d[5mC]*d[5mC]*d[5mC]*dA*dA*d[5mC]*k[5mC]*k[5mC]*eA) [compound 548537]
% inhibition [7]: 0%

548466 (e[5mC]*eG*kT*d[5mC]*dA*d[5mC]*dT*dG*dT*dA*d[5mC]*d[5mC]*dT*kA*kT*eA; antisense) [compound 548466]
% inhibition [3]: 71%

548460 (e[5mC]*eT*kA*dT*dA*d[5mC]*d[5mC]*dA*d[5mC]*dG*dG*dT*dA*kA*k[5mC]*eT; antisense) [compound 548460]
% inhibition [3]: 0%

547809 (eT*e[5mC]*kA*dT*d[5mC]*dT*dG*dG*d[5mC]*dA*dG*dT*dA*kT*kT*eG; antisense) [compound 547809]
% inhibition [8]: 33%

548016 (eA*eA*kG*dA*dG*dT*dT*dT*dG*dT*dT*d[5mC]*d[5mC]*kT*k[5mC]*e[5mC]; antisense) [compound 548016]
% inhibition [12]: 55%

548670 (antisense eG*eA*kA*dA*dA*dG*d[5mC]*d[5mC]*d[5mC]*dT*d[5mC]*d[5mC]*dG*kA*kG*e[5mC]) [compound 548670]
% inhibition [10]: 15%

547858 (antisense e[5mC]*eT*k[5mC]*dT*d[5mC]*dA*dT*dA*dT*d[5mC]*dA*dA*d[5mC]*kT*k[5mC]*e[5mC]) [compound 547858]
% inhibition [1]: 82% | % inhibition [2]: 76%

547985 (antisense eG*e[5mC]*kG*dA*dA*dT*d[5mC]*dA*dT*d[5mC]*dT*dT*dT*kG*kT*eG) [compound 547985]
% inhibition [4]: 63%

548444 (antisense e[5mC]*eT*kA*dT*dG*dT*d[5mC]*dA*d[5mC]*dT*dG*dT*dA*k[5mC]*k[5mC]*eT) [compound 548444]
% inhibition [11]: 43%

548495 (antisense eT*eT*kG*dT*dG*dA*d[5mC]*d[5mC]*d[5mC]*d[5mC]*d[5mC]*d[5mC]*dA*k[5mC]*k[5mC]*eG) [compound 548495]
% inhibition [3]: 55%

548038 (eT*eA*kA*dT*dG*dT*d[5mC]*dT*dG*dA*d[5mC]*dA*dG*kA*kT*eT; antisense) [compound 548038]
% inhibition [12]: 67%

548035 (e[5mC]*eA*k[5mC]*dT*dA*dT*dA*dG*dA*dT*dG*d[5mC]*dG*k[5mC]*k[5mC]*eA; antisense) [compound 548035]
% inhibition [12]: 44%

548381 (e[5mC]*e[5mC]*k[5mC]*dA*d[5mC]*dT*dA*d[5mC]*d[5mC]*dA*dT*dT*dT*kG*kG*eG; antisense) [compound 548381]
% inhibition [6]: 0%
